Some test systems named below: IGROV1 ovarian; MALME-3M melanoma; NCI-H23 lung; NCI-H460 lung; OVCAR-5 ovarian; SF-268 CNS; SK-MEL-28 melanoma; SNB-19 CNS; U251 CNS; UACC-62 melanoma.
Assay in all cases: NCI tumour cell line growth inhibition, 48 h

Where “and” joins values, the source holds several entries; their conditions need not be identical. Equal entries are not always repeated.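 1) Cells in 96-well plates. 2) Compound, 48 h, 5 concentrations. 3) Linear interpolation between surrounding doses. 4) Unreached endpoint = highest concentration. At the GI50, growth is halved. At the TGI there is no net growth.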

Consider `Cc1ccc2[nH]c(O)c(N=Nc3ccc(S(N)(=O)=O)cc3)c2c1`, for which the GI50 in the assay with IGROV1 ovarian is over 16.1 µM; in the assay on MALME-3M melanoma, over 22.4 µM; in the assay on NCI-H23 lung, over 21.5 µM; in the assay on NCI-H460 lung, 6.86 µM; in the assay with OVCAR-5 ovarian, over 25 µM; in the assay with SF-268 CNS, 11.8 µM. Also, the GI50 with SK-MEL-28 melanoma was 24.4 µM; in the assay with SNB-19 CNS, over 19.1 µM; with U251 CNS it was 12.8 µM; in the assay with UACC-62 melanoma, over 23.7 µM. Besides, the TGI in the assay on IGROV1 ovarian, in the assay with MALME-3M melanoma, with NCI-H23 lung, in the assay on NCI-H460 lung, in the assay with OVCAR-5 ovarian and in the assay with SF-268 CNS was over 25 µM throughout. Moreover, the TGI in the assay on SK-MEL-28 melanoma, in the assay with SNB-19 CNS, in the assay on U251 CNS and in the assay on UACC-62 melanoma was over 25 µM throughout.
Turning to `CCn1c(-c2ccc(OC(C)=O)cc2)c(C)c2cc(OC(C)=O)ccc21`, the TGI was over 100 µM in the assay on IGROV1 ovarian; 76 µM in the assay with MALME-3M melanoma; 57.4 µM in the assay with NCI-H23 lung; 56.4 µM with NCI-H460 lung; 55 µM in the assay on OVCAR-5 ovarian; 58.5 µM in the assay on SF-268 CNS. Besides, the TGI is 59.1 µM in the assay with SK-MEL-28 melanoma, over 100 µM with SNB-19 CNS, 26.2 µM with U251 CNS and 28.3 µM with UACC-62 melanoma.
With `Nc1nc(F)nc2c1ncn2C1OC(CO)C(O)C1O` (stereo unspecified), the GI50 with IGROV1 ovarian was 74.1 µM; with MALME-3M melanoma it was 28.1 µM; in the assay on NCI-H23 lung it was 7.99 µM; in the assay on NCI-H460 lung, 43.2 µM; with SF-268 CNS it was 55.4 µM; in the assay on SK-MEL-28 melanoma it was over 100 µM. In addition, the GI50 in the assay with SNB-19 CNS was 14.6 µM; in the assay on U251 CNS, 70.7 µM; in the assay on UACC-62 melanoma it was 89.8 µM. The TGI in the assay on IGROV1 ovarian is over 100 µM; in the assay on MALME-3M melanoma, over 100 µM; in the assay on NCI-H23 lung, over 88.3 µM; with NCI-H460 lung, over 100 µM; in the assay on OVCAR-5 ovarian it was over 100 µM; with SF-268 CNS, over 100 µM. For the same molecule, the TGI with SK-MEL-28 melanoma, with SNB-19 CNS, in the assay on U251 CNS and in the assay with UACC-62 melanoma was over 100 µM each time.
For `O=C(Nc1c(Cl)cc([N+](=O)[O-])cc1Cl)C(=O)C(C1OC(=O)c2ccccc21)[N+](=O)[O-]` (stereo unspecified), the TGI in the assay on IGROV1 ovarian, in the assay on MALME-3M melanoma, in the assay on NCI-H23 lung, in the assay on NCI-H460 lung, in the assay on OVCAR-5 ovarian and in the assay on SF-268 CNS was over 100 µM in each case. Moreover, the TGI in the assay on SK-MEL-28 melanoma, with SNB-19 CNS, in the assay on U251 CNS and in the assay with UACC-62 melanoma was over 100 µM each time.
For `COc1cc(/C=C(\C#N)c2ccccc2)cc(OC)c1`, the TGI with IGROV1 ovarian, in the assay with MALME-3M melanoma, in the assay on NCI-H23 lung, in the assay with NCI-H460 lung, in the assay on OVCAR-5 ovarian and in the assay on SF-268 CNS was over 100 µM throughout. Besides, the TGI in the assay on SK-MEL-28 melanoma, in the assay on SNB-19 CNS, in the assay on U251 CNS and in the assay with UACC-62 melanoma was over 100 µM each time.
Turning to `CC1=C(O)C(=O)C=C2C1=CC=C1[C@@]2(C)CC[C@@]2(C)[C@@H]3C[C@](C)(C(=O)O)CC[C@]3(C)CC[C@]12C`, the TGI in the assay with IGROV1 ovarian was 0.0428 µM; with MALME-3M melanoma, 0.152 µM; in the assay on NCI-H23 lung it was 0.181 µM; with NCI-H460 lung, 0.384 µM; in the assay on OVCAR-5 ovarian it was 0.332 µM; with SF-268 CNS, 0.106 µM. The TGI with SK-MEL-28 melanoma stood at 0.0345 µM; in the assay with SNB-19 CNS it was 0.23 µM; with U251 CNS, 0.139 µM; in the assay with UACC-62 melanoma it was 0.0669 µM.
With `CCc1nc(C(N)=O)c(Nc2ccc(N3CCC(N4CCN(C)CC4)CC3)c(OC)c2)nc1NC1CCOCC1`, the GI50 is 0.876 µM and 0.279 µM and 0.79 µM in the assay on IGROV1 ovarian; 0.946 µM and 0.239 µM and 0.764 µM in the assay with MALME-3M melanoma; 1.48 µM and 0.386 µM and 1.2 µM in the assay on NCI-H23 lung; 1.37 µM and 0.501 µM and 1.27 µM in the assay on NCI-H460 lung; 0.484 µM and 0.279 µM and 0.486 µM in the assay with OVCAR-5 ovarian; 5.04 µM and 0.641 µM and 3.51 µM in the assay on SK-MEL-28 melanoma. Also, the GI50 in the assay with U251 CNS is 5.9 µM and 1.28 µM and 7.96 µM; with UACC-62 melanoma, 1.53 µM and 0.527 µM and 1.56 µM. Moreover, the TGI is 8.09 µM and > 10 µM and 8.12 µM in the assay with IGROV1 ovarian; 23.5 µM and > 2.7 µM and 24.7 µM in the assay with NCI-H23 lung; 17.4 µM and > 10 µM and 19.5 µM in the assay with NCI-H460 lung; 14.5 µM and > 10 µM in the assay with OVCAR-5 ovarian; 22.8 µM and > 2.72 µM and 24.5 µM with SF-268 CNS; 21.2 µM and > 2.91 µM and 19.1 µM in the assay with SK-MEL-28 melanoma. For the same molecule, the TGI was 20.2 µM and > 10 µM and 22.7 µM with SNB-19 CNS; 19.8 µM and > 3.84 µM and 21.2 µM in the assay with U251 CNS; 16.9 µM and > 10 µM and 16.4 µM in the assay on UACC-62 melanoma.
With `COc1ccc(/C=C/c2cc(OC)cc(=O)o2)cc1`, the TGI in the assay with IGROV1 ovarian, with MALME-3M melanoma, in the assay on NCI-H23 lung, in the assay with NCI-H460 lung, with OVCAR-5 ovarian and in the assay on SF-268 CNS was over 100 µM in each case. Besides, the TGI in the assay with SK-MEL-28 melanoma is over 100 µM; in the assay on SNB-19 CNS it was over 100 µM; with U251 CNS, 76.9 µM; in the assay with UACC-62 melanoma, over 100 µM.
Regarding `Clc1ccc(C=Nc2ccc3c(c2)Cc2ccccc2-3)c(Cl)c1`, the TGI with IGROV1 ovarian, with MALME-3M melanoma, in the assay on NCI-H23 lung, with NCI-H460 lung, in the assay on OVCAR-5 ovarian and with SF-268 CNS was over 100 µM each time. Moreover, the TGI with SK-MEL-28 melanoma, in the assay on SNB-19 CNS, in the assay with U251 CNS and in the assay with UACC-62 melanoma was over 100 µM throughout.
For `O=C1Nc2ccc(F)cc2/C1=C/c1ccc[nH]1`, the GI50 in the assay with IGROV1 ovarian was 13.4 µM; in the assay with MALME-3M melanoma it was over 25 µM; in the assay on NCI-H23 lung, over 25 µM; in the assay with NCI-H460 lung, over 25 µM; with OVCAR-5 ovarian, over 21.3 µM; in the assay with SF-268 CNS, over 25 µM. Besides, the GI50 with SK-MEL-28 melanoma, with SNB-19 CNS, in the assay on U251 CNS and with UACC-62 melanoma was over 25 µM each time. The TGI with IGROV1 ovarian, in the assay with MALME-3M melanoma, in the assay with NCI-H23 lung, in the assay on NCI-H460 lung, in the assay on OVCAR-5 ovarian and with SF-268 CNS was over 25 µM each time. Also, the TGI in the assay on SK-MEL-28 melanoma, in the assay with SNB-19 CNS, in the assay on U251 CNS and in the assay with UACC-62 melanoma was over 25 µM in each case.

The record behind these values is PubChem BioAssay (NCI).
